Test results published in ChEMBL document CHEMBL4184307, “Identification of caffeoylquinic acid derivatives as natural protein tyrosine phosphatase 1B inhibitors from Artemisia princeps” (Bioorg Med Chem Lett, 2018).
pIC50: −log10 of the molar value.

Columns and labels:
[1] = target: T1, Tyrosine-protein phosphatase non-receptor type 1 (Homo sapiens, UniProt P18031); experiment: (§1) Inhibition of PTP1B (unknown origin)
T1 sequence (P18031 whole entry): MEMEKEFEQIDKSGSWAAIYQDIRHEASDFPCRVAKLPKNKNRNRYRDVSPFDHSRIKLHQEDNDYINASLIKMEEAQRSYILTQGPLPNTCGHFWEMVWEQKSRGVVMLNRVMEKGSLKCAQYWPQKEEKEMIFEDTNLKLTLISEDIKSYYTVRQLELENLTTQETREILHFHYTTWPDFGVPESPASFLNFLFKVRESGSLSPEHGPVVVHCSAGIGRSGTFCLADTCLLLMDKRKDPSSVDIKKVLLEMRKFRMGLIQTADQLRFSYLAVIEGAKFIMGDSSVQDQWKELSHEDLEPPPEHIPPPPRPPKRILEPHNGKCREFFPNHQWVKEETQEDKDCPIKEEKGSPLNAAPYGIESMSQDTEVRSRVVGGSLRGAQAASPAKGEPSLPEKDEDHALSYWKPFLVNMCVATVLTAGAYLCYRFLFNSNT

[2] = target: T2, Tyrosine-protein phosphatase non-receptor type 1 (Homo sapiens) (UniProt P18031); experiment: as §1
T2 sequence (whole entry): T1 sequence (P18031 whole entry)

[3] = target: T2, Tyrosine-protein phosphatase non-receptor type 1 (Homo sapiens); experiment: Inhibition of PTP1B (unknown origin) at 100 uM relative to control
[4] = target: T3, Tyrosine-protein phosphatase non-receptor type 2 (Homo sapiens, UniProt P17706); experiment: Inhibition of TCPTP (unknown origin)
T3 sequence (P17706 whole entry): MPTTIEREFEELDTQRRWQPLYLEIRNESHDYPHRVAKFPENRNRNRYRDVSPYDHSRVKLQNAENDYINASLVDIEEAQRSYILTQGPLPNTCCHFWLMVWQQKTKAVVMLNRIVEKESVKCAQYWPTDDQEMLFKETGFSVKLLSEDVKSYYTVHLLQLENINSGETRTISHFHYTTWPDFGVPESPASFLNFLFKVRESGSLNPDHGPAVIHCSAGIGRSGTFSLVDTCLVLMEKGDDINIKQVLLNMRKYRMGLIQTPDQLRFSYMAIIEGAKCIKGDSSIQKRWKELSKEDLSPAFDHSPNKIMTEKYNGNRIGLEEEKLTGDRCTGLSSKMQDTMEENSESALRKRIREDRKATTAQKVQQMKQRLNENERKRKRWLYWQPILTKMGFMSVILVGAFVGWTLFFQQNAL

[5] = target: Tyrosine-protein phosphatase non-receptor type 6 (Homo sapiens) (UniProt P29350); experiment: Inhibition of SHP1 (unknown origin) at 100 uM relative to control
Tyrosine-protein phosphatase non-receptor type 6 (Homo sapiens), sequence (P29350 whole entry): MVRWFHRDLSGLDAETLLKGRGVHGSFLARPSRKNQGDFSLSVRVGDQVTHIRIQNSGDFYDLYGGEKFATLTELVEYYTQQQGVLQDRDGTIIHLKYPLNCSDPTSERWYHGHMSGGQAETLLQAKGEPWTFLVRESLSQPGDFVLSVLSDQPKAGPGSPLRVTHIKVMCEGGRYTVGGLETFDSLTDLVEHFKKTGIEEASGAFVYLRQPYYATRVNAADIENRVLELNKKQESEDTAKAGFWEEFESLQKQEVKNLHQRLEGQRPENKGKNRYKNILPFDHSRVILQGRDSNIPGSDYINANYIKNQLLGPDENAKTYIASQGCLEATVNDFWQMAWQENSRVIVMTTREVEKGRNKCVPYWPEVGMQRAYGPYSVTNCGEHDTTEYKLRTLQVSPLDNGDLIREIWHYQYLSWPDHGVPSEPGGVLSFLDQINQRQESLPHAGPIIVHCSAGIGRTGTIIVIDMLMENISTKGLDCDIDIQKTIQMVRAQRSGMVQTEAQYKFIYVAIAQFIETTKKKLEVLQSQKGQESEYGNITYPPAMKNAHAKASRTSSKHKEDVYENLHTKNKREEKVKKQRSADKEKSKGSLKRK

[6] = target: T4, Tyrosine-protein phosphatase non-receptor type 11 (Homo sapiens) (UniProt Q06124); experiment: Inhibition of SHP2 (unknown origin) at 100 uM relative to control
T4 sequence (whole entry): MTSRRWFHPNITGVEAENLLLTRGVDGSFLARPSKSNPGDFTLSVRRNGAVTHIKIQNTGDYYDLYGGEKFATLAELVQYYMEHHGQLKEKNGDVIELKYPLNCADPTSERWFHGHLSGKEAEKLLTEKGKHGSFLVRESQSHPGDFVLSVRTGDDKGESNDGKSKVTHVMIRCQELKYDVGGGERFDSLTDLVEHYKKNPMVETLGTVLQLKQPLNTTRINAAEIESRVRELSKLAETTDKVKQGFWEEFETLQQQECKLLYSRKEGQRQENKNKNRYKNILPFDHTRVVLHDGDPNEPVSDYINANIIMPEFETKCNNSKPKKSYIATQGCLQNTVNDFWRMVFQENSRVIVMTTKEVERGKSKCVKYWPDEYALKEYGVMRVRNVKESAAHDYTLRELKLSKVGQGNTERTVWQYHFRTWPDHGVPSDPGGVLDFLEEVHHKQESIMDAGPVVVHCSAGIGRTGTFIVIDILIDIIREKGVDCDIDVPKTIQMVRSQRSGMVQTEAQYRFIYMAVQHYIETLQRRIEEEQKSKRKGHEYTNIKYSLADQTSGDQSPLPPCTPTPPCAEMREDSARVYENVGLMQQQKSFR

[7] = target: Dual specificity protein phosphatase 3 (Homo sapiens) (UniProt P51452); experiment: Inhibition of VHR (unknown origin) at 100 uM relative to control
Dual specificity protein phosphatase 3 (Homo sapiens), sequence (P51452 whole entry, looked up): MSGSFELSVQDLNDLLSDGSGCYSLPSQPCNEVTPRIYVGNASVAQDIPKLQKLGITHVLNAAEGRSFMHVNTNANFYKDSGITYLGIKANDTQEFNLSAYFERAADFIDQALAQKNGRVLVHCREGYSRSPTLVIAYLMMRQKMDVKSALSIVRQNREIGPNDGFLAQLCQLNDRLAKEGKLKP

[8] = target: T5, Tyrosine-protein phosphatase non-receptor type 2 (Homo sapiens) (UniProt P17706); experiment: Inhibition of TCPTP (unknown origin) at 100 uM relative to control
T5 sequence (whole entry): T3 sequence (P17706 whole entry)

pIC50 [1] | inhibition [2] | SMILES | further results
4.42 | Dose-dependent effect | O=C(/C=C/c1ccc(O)c(O)c1)O[C@@H]1C[C@](O)(C(=O)O)C[C@@H](OC(=O)/C=C/c2ccc(O)c(O)c2)[C@H]1O | 
4.36 | Dose-dependent effect | O=C(/C=C/c1ccc(O)c(O)c1)O[C@H]1[C@H](O)C[C@](O)(C(=O)O)C[C@H]1O | 
4.17 | Dose-dependent effect | COc1cc(/C=C/C(=O)O[C@H]2[C@H](O)C[C@](O)(C(=O)O)C[C@H]2OC(=O)/C=C/c2ccc(O)c(OC)c2)ccc1O | 
4.25 | Dose-dependent effect | COC(=O)[C@]1(O)C[C@@H](O)[C@@H](OC(=O)/C=C/c2ccc(O)c(O)c2)[C@H](OC(=O)/C=C/c2ccc(O)c(O)c2)C1 | 
4.23 | Dose-dependent effect | O=C(/C=C/c1ccc(O)c(O)c1)O[C@H]1[C@H](O)C[C@](O)(C(=O)O)C[C@H]1OC(=O)/C=C/c1ccc(O)c(O)c1 | 
4.38 | Dose-dependent effect | O=C(/C=C/c1ccc(O)c(O)c1)O[C@@H]1[C@H](O)C[C@@](O)(C(=O)O)C[C@H]1OC(=O)/C=C/c1ccc(O)c(O)c1 | 
4.45 | Dose-dependent effect | O=C(/C=C/c1ccc(O)c(O)c1)O[C@@H]1C[C@](OC(=O)/C=C/c2ccc(O)c(O)c2)(C(=O)O)C[C@@H](O)[C@H]1O [1,5-O-TRANS-DICAFFEOYLQUINIC ACID] | 
 | Dose-dependent effect | O=C(/C=C/c1ccc(O)c(O)c1)O[C@@H]1C[C@@](O)(C(=O)O)C[C@@H](O)[C@@H]1O | 
4.37 | Dose-dependent effect | COC(=O)[C@]1(O)C[C@@H](OC(=O)/C=C/c2ccc(O)c(O)c2)[C@@H](O)[C@H](OC(=O)/C=C/c2ccc(O)c(O)c2)C1 | 
 | Dose-dependent effect | O=C(/C=C/c1ccc(O)c(O)c1)O[C@@H]1C[C@](O)(C(=O)O)C[C@@H](O)[C@H]1O [CHLOROGENIC ACID] | inhibition [3]: 83.1%; pIC50 [4]: 4.11; inhibition [5]: 32%; inhibition [6]: 28.4%; inhibition [7]: 30.5%; inhibition [8]: 65.6%
